Laboratory results taken from publication PMC8162438, “Cancer cell-selective modulation of mitochondrial respiration and metabolism by potent organogold(III) dithiocarbamates” (Chemical Science, 2020).

System: MDA-MB-231
Assay: Seahorse XF96 mitochondria stress test (OCR), MDA-MB-231
Format: cell-based
Excerpt: With the previous biological data pointing towards metabolic changes, we sought to explore further the effect 2a had on redox metabolism. The ETC is a complicated biological system that is constantly changing in response to external stress in order to achieve redox homeostasis within the cell. With the DEG data alluding to involvement of ETC genes (Fig. 9A), we then decided to look in depth at the effect of complexes on these biological parameters. We next performed oxygen consumption rate (OCR) experiments by Seahorse 96XF to quantify the effect of 2a on mitochondrial bioenergetics or stress (MitoStress) (Fig. 9B and C).[87] A series of known inhibitors of the various parts of the ETC that allow for the measurement of specific parameters were used. […] ATP linked respiration was also calculated and found to be decreased by more than 80% at 3 μM treatment (Fig. 9F). […]
For the wells that were pre-treated with NAC, a stock solution of NAC in DMEM was added at a concentration of 10 mM for 2 h prior to the addition of 2a. […] The cells were then analyzed using FACS with the FITC channel […]
Mitochondrial Metabolism Analysis with Seahorse XF96 Analysis. […] The optimum conditions were determined to be 30,000 cells/well and an FCCP injection concentration of 0.6 µM. […]

With `C[N+](C)=C1[S][Au-2]2([S]1)[c]1ccccc1Cc1cccc[n+]12.F[P-](F)(F)(F)(F)F` (centres unmarked) [2a] the “Decrease of maximal OCR” value (MDA-MB-231, 1 μM, within 50 minutes, compared to control) was “more than 25%” and the “Decrease of basal OCR” value (MDA-MB-231, 3 μM, 17 minutes from injection) was “more than 20%”.
